BigSolDB 2.1

## Cc1c(Cl)cccc1Nc1ccccc1C(=O)O
In 1,4-dioxane, 288.15 K
  solubility (mole fraction): 0.0289
In 1,4-dioxane, 293.15 K
  solubility (mole fraction): 0.032
In 1,4-dioxane, 298.15 K
  solubility (mole fraction): 0.0356
In 1,4-dioxane, 303.15 K
  solubility (mole fraction): 0.0399
In 1,4-dioxane, 308.15 K
  solubility (mole fraction): 0.0444
In 1,4-dioxane, 313.15 K
  solubility (mole fraction): 0.0492
In 1,4-dioxane, 318.15 K
  solubility (mole fraction): 0.0548
In 1,4-dioxane, 323.15 K
  solubility (mole fraction): 0.0599
In 1,4-dioxane, 328.15 K
  solubility (mole fraction): 0.0654
In DMF, 283.15 K
  solubility (mole fraction): 0.00652
In DMF, 288.15 K
  solubility (mole fraction): 0.00892
In DMF, 293.15 K
  solubility (mole fraction): 0.0117
In DMF, 298.15 K
  solubility (mole fraction): 0.0152
In DMF, 303.15 K
  solubility (mole fraction): 0.019
In DMF, 308.15 K
  solubility (mole fraction): 0.0241
In DMF, 313.15 K
  solubility (mole fraction): 0.0303
In DMF, 318.15 K
  solubility (mole fraction): 0.0374
In DMF, 323.15 K
  solubility (mole fraction): 0.0454
In DMF, 328.15 K
  solubility (mole fraction): 0.055
In DMSO, 293.15 K
  solubility (mole fraction): 0.0144
In DMSO, 298.15 K
  solubility (mole fraction): 0.0186
In DMSO, 303.15 K
  solubility (mole fraction): 0.0229
In DMSO, 308.15 K
  solubility (mole fraction): 0.0288
In DMSO, 313.15 K
  solubility (mole fraction): 0.0351
In DMSO, 318.15 K
  solubility (mole fraction): 0.042
In DMSO, 323.15 K
  solubility (mole fraction): 0.0495
In DMSO, 328.15 K
  solubility (mole fraction): 0.0571
In acetonitrile, 283.15 K
  solubility (mole fraction): 0.000228
In acetonitrile, 288.15 K
  solubility (mole fraction): 0.000339
In acetonitrile, 293.15 K
  solubility (mole fraction): 0.000463
In acetonitrile, 298.15 K
  solubility (mole fraction): 0.000618
In acetonitrile, 303.15 K
  solubility (mole fraction): 0.000808
In acetonitrile, 308.15 K
  solubility (mole fraction): 0.00107
In acetonitrile, 313.15 K
  solubility (mole fraction): 0.00137
In acetonitrile, 318.15 K
  solubility (mole fraction): 0.00177
In acetonitrile, 323.15 K
  solubility (mole fraction): 0.00221
In acetonitrile, 328.15 K
  solubility (mole fraction): 0.00282
In cyclohexane, 283.15 K
  solubility (mole fraction): 2.97e-05
In cyclohexane, 288.15 K
  solubility (mole fraction): 4.31e-05
In cyclohexane, 293.15 K
  solubility (mole fraction): 5.94e-05
In cyclohexane, 298.15 K
  solubility (mole fraction): 8.23e-05
In cyclohexane, 303.15 K
  solubility (mole fraction): 0.000116
In cyclohexane, 308.15 K
  solubility (mole fraction): 0.000159
In cyclohexane, 313.15 K
  solubility (mole fraction): 0.000216
In cyclohexane, 318.15 K
  solubility (mole fraction): 0.000292
In cyclohexane, 323.15 K
  solubility (mole fraction): 0.000391
In cyclohexane, 328.15 K
  solubility (mole fraction): 0.000515
In ethyl acetate, 283.15 K
  solubility (mole fraction): 0.00603
In ethyl acetate, 288.15 K
  solubility (mole fraction): 0.00799
In ethyl acetate, 293.15 K
  solubility (mole fraction): 0.0102
In ethyl acetate, 298.15 K
  solubility (mole fraction): 0.0127
In ethyl acetate, 303.15 K
  solubility (mole fraction): 0.0162
In ethyl acetate, 308.15 K
  solubility (mole fraction): 0.0201
In ethyl acetate, 313.15 K
  solubility (mole fraction): 0.0252
In ethyl acetate, 318.15 K
  solubility (mole fraction): 0.0314
In ethyl acetate, 323.15 K
  solubility (mole fraction): 0.0383
In ethyl acetate, 328.15 K
  solubility (mole fraction): 0.0458
In ethyl formate, 283.15 K
  solubility (mole fraction): 0.00169
In ethyl formate, 288.15 K
  solubility (mole fraction): 0.00239
In ethyl formate, 293.15 K
  solubility (mole fraction): 0.00311
In ethyl formate, 298.15 K
  solubility (mole fraction): 0.00405
In ethyl formate, 303.15 K
  solubility (mole fraction): 0.00506
In ethyl formate, 308.15 K
  solubility (mole fraction): 0.0066
In ethyl formate, 313.15 K
  solubility (mole fraction): 0.00833
In ethyl formate, 318.15 K
  solubility (mole fraction): 0.01
In ethyl formate, 323.15 K
  solubility (mole fraction): 0.0131
In ethyl formate, 328.15 K
  solubility (mole fraction): 0.0159
In ethylene glycol, 283.15 K
  solubility (mole fraction): 8.74e-05
In ethylene glycol, 288.15 K
  solubility (mole fraction): 0.000132
In ethylene glycol, 293.15 K
  solubility (mole fraction): 0.000177
In ethylene glycol, 298.15 K
  solubility (mole fraction): 0.000233
In ethylene glycol, 303.15 K
  solubility (mole fraction): 0.000311
In ethylene glycol, 308.15 K
  solubility (mole fraction): 0.000406
In ethylene glycol, 313.15 K
  solubility (mole fraction): 0.000546
In ethylene glycol, 318.15 K
  solubility (mole fraction): 0.000717
In ethylene glycol, 323.15 K
  solubility (mole fraction): 0.000931
In ethylene glycol, 328.15 K
  solubility (mole fraction): 0.00122
In n-heptanol, 283.15 K
  solubility (mole fraction): 0.00557
In n-heptanol, 288.15 K
  solubility (mole fraction): 0.00726
In n-heptanol, 293.15 K
  solubility (mole fraction): 0.00924
In n-heptanol, 298.15 K
  solubility (mole fraction): 0.0114
In n-heptanol, 303.15 K
  solubility (mole fraction): 0.0142
In n-heptanol, 308.15 K
  solubility (mole fraction): 0.0171
In n-heptanol, 313.15 K
  solubility (mole fraction): 0.0214
In n-heptanol, 318.15 K
  solubility (mole fraction): 0.0257
In n-heptanol, 323.15 K
  solubility (mole fraction): 0.0306
In n-heptanol, 328.15 K
  solubility (mole fraction): 0.0366
In n-hexanol, 283.15 K
  solubility (mole fraction): 0.00435
In n-hexanol, 288.15 K
  solubility (mole fraction): 0.00581
In n-hexanol, 293.15 K
  solubility (mole fraction): 0.00758
In n-hexanol, 298.15 K
  solubility (mole fraction): 0.0094
In n-hexanol, 303.15 K
  solubility (mole fraction): 0.0118
In n-hexanol, 308.15 K
  solubility (mole fraction): 0.0144
In n-hexanol, 313.15 K
  solubility (mole fraction): 0.0176
In n-hexanol, 318.15 K
  solubility (mole fraction): 0.021
In n-hexanol, 323.15 K
  solubility (mole fraction): 0.0251
In n-hexanol, 328.15 K
  solubility (mole fraction): 0.0295
In n-pentanol, 283.15 K
  solubility (mole fraction): 0.00335
In n-pentanol, 288.15 K
  solubility (mole fraction): 0.00432
In n-pentanol, 293.15 K
  solubility (mole fraction): 0.00575
In n-pentanol, 298.15 K
  solubility (mole fraction): 0.00741
In n-pentanol, 303.15 K
  solubility (mole fraction): 0.00916
In n-pentanol, 308.15 K
  solubility (mole fraction): 0.0112
In n-pentanol, 313.15 K
  solubility (mole fraction): 0.0138
In n-pentanol, 318.15 K
  solubility (mole fraction): 0.0169
In n-pentanol, 323.15 K
  solubility (mole fraction): 0.0206
In n-pentanol, 328.15 K
  solubility (mole fraction): 0.0243
In n-pentyl acetate, 283.15 K
  solubility (mole fraction): 0.00558
In n-pentyl acetate, 288.15 K
  solubility (mole fraction): 0.00726
In n-pentyl acetate, 293.15 K
  solubility (mole fraction): 0.00931
In n-pentyl acetate, 298.15 K
  solubility (mole fraction): 0.0116
In n-pentyl acetate, 303.15 K
  solubility (mole fraction): 0.0146
In n-pentyl acetate, 308.15 K
  solubility (mole fraction): 0.0179
In n-pentyl acetate, 313.15 K
  solubility (mole fraction): 0.0218
In n-pentyl acetate, 318.15 K
  solubility (mole fraction): 0.0261
In n-pentyl acetate, 323.15 K
  solubility (mole fraction): 0.031
In n-pentyl acetate, 328.15 K
  solubility (mole fraction): 0.0371
